Assay results: US5496947A, “Quinolone carboxylic acid derivatives” (Dong Wha Pharmaceutical Industrial Co., Ltd., priority 1994, dated 1996)
Read-outs that look alike come from different tables or passages of the source.

Key:
[1] = test system: Pseudomonas aeruginosa ATCC 27853; experiment: MIC, 2-fold dilution method in micro-well plate, P. aeruginosa; format: cell-based; conditions: P. aerugirnosa ATCC27853, 37° C., read-out: Minimum Inhibitory Concentration
Method in brief: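 MIC was recorded after 37° C incubation of bacteria with serial two-fold dilutions of compound. Bacteria came from an overnight 37° C BHI culture; the final inoculum was about (10^5-10^6)/2 cfu/ml. Compounds were tested as hydrochloride salts diluted in sterile water from a 10 mg/ml stock.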

[2] = test system: Escherichia coli ATCC 25922; experiment: MIC, 2-fold dilution method in micro-well plate, E. coli; format: cell-based; conditions: ATCC25922, read-out: Minimum Inhibitory Concentration
Method in brief: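 Broth two-fold microdilution of hydrochloride salts in water against E. coli ATCC 25922 grown overnight in BHI at 37° C. Final inoculum about (10^5 -10^6)/2 cfu/ml; after incubation at 37° C, MIC was recorded.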

[3] = test system: Acinetobacter calcoaceticus; experiment: MIC, 2-fold dilution method in micro-well plate, A. calcoaceticus; format: cell-based
[4] = test system: Serratia marcescens ATCC 8100; experiment: MIC, 2-fold dilution method in micro-well plate, S. marcescens; format: cell-based; conditions: S. marcescens ATCC8100, 37° C., read-out: Minimum Inhibitory Concentration
Method in brief: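 Bacteria grown overnight in BHI broth at 37 °C were added to wells of two-fold diluted compound (as HCl salt, aqueous) at about (10^5-10^6)/2 cfu/ml final. Lowest inhibitory concentration recorded after 37 °C incubation.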

Enterobacter cloacae = experiment: MIC, 2-fold dilution method in micro-well plate, E. cloacae; format: cell-based; conditions: read-out: Minimum Inhibitory Concentration
[5] = test system: Proteus vulgaris ATCC 13315; experiment: MIC, 2-fold dilution method in micro-well plate, P. vulgaris; format: cell-based
Method in brief: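 MIC recorded after 37 °C cultivation of compound hydrochloride salts in serial 2-fold aqueous dilutions, mixed equally with overnight BHI culture (about 10^5 cfu/ml inoculum). Micro-well plate format.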

[6] = test system: Salmonella typhimurium ATCC 14028; experiment: MIC, 2-fold dilution method in micro-well plate, S. typhimurium; format: cell-based; conditions: Salmonella enterica; S. typhisurium ATCC14028, 37° C.; read-out: Minimum Inhibitory Concentration
Method in brief: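 Hydrochloride salts dissolved in sterile water (10 mg/ml stock) and serially diluted twofold in microplate wells, then inoculated to roughly (10^5-10^6)/2 cfu/ml from overnight BHI culture. MIC recorded after 37 °C cultivation.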

[7] = test system: Streptococcus faecalis ATCC 29212; experiment: MIC, 2-fold dilution method in micro-well plate, S. faecalis ATCC 29212; format: cell-based; conditions: Enterococcus faecalis; S. faecalis ATCC29212, 37° C.; read-out: Minimum Inhibitory Concentration
Method in brief: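 MIC was read after incubation at 37° C in micro-well plates. Bacteria were grown overnight in BHI broth and added to give about (10^5-10^6)/2 cfu/ml per well. The hydrochloride-salt compounds were serially diluted two-fold in sterile water.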

[8] = test system: Shigella sonnei ATCC 25931; experiment: MIC, 2-fold dilution method in micro-well plate, S. sonnei; format: cell-based; conditions: S. sonnei ATCC25931, 37° C., read-out: Minimum Inhibitory Concentration
Method in brief: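 Compounds, converted to hydrochloride salts, were serially diluted two-fold in micro-wells and mixed with an equal volume of bacteria grown overnight in BHI broth at 37° C (final about (10^5-10^6)/2 cfu/ml). Following culture at 37° C, the minimum inhibitory concentration was recorded.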

[9] = test system: Streptococcus pneumoniae ATCC 6303; experiment: MIC, 2-fold dilution method in micro-well plate, S. pneumoniae; format: cell-based; conditions: S. pneuinoniae ATCC6303, 37° C., read-out: Minimum Inhibitory Concentration
Method in brief: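 Inoculum of about (10^5–10^6)/2 cfu/ml came from an overnight brain-heart infusion culture at 37° C. Compounds, tested as hydrochloride salts dissolved in sterile water, were two-fold serially diluted in micro-well plates. The lowest concentration inhibiting growth after 37° C incubation was taken as MIC.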

[10] = test system: Enterobacter aerogenes ATCC 13048; experiment: MIC, 2-fold dilution method in micro-well plate, E. aerogenes; format: cell-based; conditions: Klebsiella aerogenes
Method in brief: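 MIC read after growth at 37° C in micro-well plates, with E. aerogenes at roughly (10^5–10^6)/2 cfu/ml per well, grown overnight in brain-heart infusion broth. Compounds tested as hydrochlorides, serially diluted two-fold in water from a 10 mg/ml stock.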

[11] = test system: Streptococcus pyrogens ATCC 19615; experiment: MIC, 2-fold dilution method in micro-well plate, S. pyrogens; format: cell-based; conditions: S. pyrogenes ATCC19615, 37° C., read-out: Minimum Inhibitory Concentration
Method in brief: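 Inoculum from overnight 37° C brain-heart infusion culture gave roughly (10^5-10^6)/2 cfu/mL per well against two-fold serial dilutions of hydrochloride-salt compound in water. Lowest concentration inhibiting growth after 37° C incubation taken as MIC.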

[12] = test system: Klebsiella pneumoniae ATCC 13883; experiment: MIC, 2-fold dilution method in micro-well plate, K. pneumoniae; format: cell-based; conditions: ATCC13883, read-out: Minimum Inhibitory Concentration
Method in brief: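 MIC determined after 37 °C incubation of wells inoculated with overnight BHI-grown bacteria at about (10^5–10^6)/2 cfu/ml final. Compound tested as hydrochloride salt, dissolved in sterile water and diluted two-fold serially.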

[13] = test system: Shigella flexneri ATCC 12022; experiment: MIC, 2-fold dilution method in micro-well plate, S. flexneri; format: cell-based; conditions: S. flexneri ATCC12022, 37° C., read-out: Minimum Inhibitory Concentration
Method in brief: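 Test compounds, converted to hydrochloride salts and dissolved in sterile water, were serially diluted two-fold in micro-well plates. Wells received bacteria grown overnight in brain-heart infusion broth at 37 °C, about (10^5–10^6)/2 cfu/ml final. Minimum inhibitory concentration determined following incubation at 37 °C.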

[14] = test system: Streptococcus faecalis ATCC 19433; experiment: MIC, 2-fold dilution method in micro-well plate, S. faecalis ATCC 19433; format: cell-based; conditions: Enterococcus faecalis; S. faecalis ATCC19433, 37° C.; read-out: Minimum Inhibitory Concentration
Method in brief: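 Bacteria grown overnight in brain-heart infusion broth at 37 °C, then mixed with two-fold serial aqueous dilutions of hydrochloride salts in micro-wells at roughly (10^5-10^6)/2 cfu/ml. Lowest inhibitory concentration recorded after 37 °C culture.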

[15] = Pharmacokinetic properties in ICR mouse, oral and subcutaneous, Bio-Assay (Agar well method); format: in vivo; conditions: 40 mg/kg, average of four tests; for AUC / Cmax / Tmax / bioavailability / half-life: blood; for dose excreted: urine, read-out: Urine Recovery
Experimental: The pharmacokinetic properties are tested by orally administrating and subcutaneously injecting a test compound and a substance for control to a ICR Mouse with 22 g±10% weight, drawing blood after 10, 20, 30, 45, 60, 90, 120, 150, 180 and […] and analyzed by Bio-Assay (Agar well method).

LD50, oral, mice = conditions: mouse, in vivo
[16] = test system: Haemophilus influenza ATCC 35056; experiment: MIC, 2-fold dilution method in micro-well plate, H. influenzae; format: cell-based; conditions: H. influenzae ATCC35056, 37° C.; read-out: Minimum Inhibitory Concentration
Method in brief: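 Hydrochloride salts dissolved in water (10 mg/ml stock) and serially diluted two-fold in micro-wells, each mixed with equal volume of overnight BHI-grown bacteria to about (10^5-10^6)/2 cfu/ml. Minimum inhibitory concentration recorded after incubation at 37° C.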

[17] = test system: Citrobacter freundii ATCC 8090; experiment: MIC, 2-fold dilution method in micro-well plate, C. freundii; format: cell-based; conditions: ATCC8090, read-out: Minimum Inhibitory Concentration
Method in brief: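 MIC recorded after 37° C. culture of wells inoculated at roughly (10^5-10^6)/2 cfu/ml, bacteria pre-grown overnight in BHI broth. Compounds, converted to hydrochloride salts and dissolved in sterile distilled water, serially diluted two-fold in micro-well plates.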

With `CN1CCN(c2cc3c(cc2F)c(=O)c(C(=O)O)cn3-c2ccc(F)cn2)CC1.Cl` [Example 18, 1-(5-fluoro-2-pyridyl)-6-fluoro-7-(4-methyl-1-piperazinyl)-1,4-dihydro-4-oxoquinoline-3-carboxylic acid hydrochloride] the MIC [1] was 1.25 mg/L, the MIC [2] was 0.625 mg/L and the MIC ([3]; ATCC8090, read-out: Minimum Inhibitory Concentration) was 0.625 mg/L. For the same compound, the MIC [4] was 1.25 mg/L, the MIC (Enterobacter cloacae) was 0.625 mg/L and the MIC ([5]; P. vulgaris ATCC13315, 37° C., read-out: Minimum Inhibitory Concentration) was 0.313 mg/L. The MIC [6] was 1.25 mg/L, the MIC [7] was 2.5 mg/L and the MIC [8] was 0.625 mg/L. It also gave an MIC [9] of 5 mg/L, an MIC ([10]; E. aerogenes ATCC13048, 37° C., read-out: Minimum Inhibitory Concentration) of 0.25 mg/L and an MIC [11] of 5 mg/L. It also gave an MIC [12] of 0.625 mg/L, an MIC [13] of 0.625 mg/L and an MIC [14] of 5 mg/L. For the same compound, the AUC ([15]; po, P.O) was 42.2 µg·h/mL, the Cmax ([15]; po, P.O) was 9.18 µg/mL and the Tmax ([15]; po, P.O) was 0.94 h. For the same compound, the bioavailability ([15]; po, P.O) was 68.6%, the half-life ([15]; po, P.O) was 3.44 h and the AUC ([15]; sc, S.C) was 63.5 µg·h/mL. For the same compound, the Cmax ([15]; sc, S.C) was 19.6 µg/mL, the Tmax ([15]; sc, S.C) was 1 h and the half-life ([15]; sc, S.C) was 3.15 h. For the same compound, the dose excreted ([15]; po, P.O) was 28.1%, the dose excreted ([15]; sc, S.C) was 39.9% and the LD50 (LD50, oral, mice) was greater than 3000 mg/kg. For the same compound, the MIC [16] was 0.625 mg/L and the MIC [17] was 0.625 mg/L.

`CN1CCN(c2nc3c(cc2F)c(=O)c(C(=O)O)cn3-c2ccc(F)cn2)CC1.Cl` [Example 13, 1-(5-fluoro-2-pyridyl)-6-fluoro-7-(4-methyl-1-piperazinyl)-1,4-dihydro-4-oxo-1,8-naphthyridine-3-carboxylic acid hydrochloride] showed an MIC [1] of 1.25 mg/L, an MIC [2] of 0.156 mg/L and an MIC ([3]; A. calcoaceticus ATCC8090 (as in tables), 37° C., read-out: Minimum Inhibitory Concentration) of 0.313 mg/L. For the same compound, the MIC [4] was 0.313 mg/L, the MIC (Enterobacter cloacae; E. cloacae ATCC23355 (as in tables), 37° C.) was 0.313 mg/L and the MIC ([5]; ATCC13315, read-out: Minimum Inhibitory Concentration) was 0.625 mg/L. For the same compound, the MIC [6] was 0.313 mg/L, the MIC [7] was 5 mg/L and the MIC [8] was 0.156 mg/L. The MIC [9] was 2.5 mg/L, the MIC ([10]; ATCC13048, read-out: Minimum Inhibitory Concentration) was 0.625 mg/L and the MIC [11] was 5 mg/L. It also gave an MIC [12] of 0.625 mg/L, an MIC [13] of 0.156 mg/L and an MIC [14] of 5 mg/L. It also gave an AUC ([15]; po, P.O) of 41.1 µg·h/mL, a Cmax ([15]; po, P.O) of 11.5 µg/mL and a Tmax ([15]; po, P.O) of 1.12 h. For the same compound, the bioavailability ([15]; po, P.O) was 74%, the half-life ([15]; po, P.O) was 8.07 h and the AUC ([15]; sc, S.C) was 55.5 µg·h/mL. For the same compound, the Cmax ([15]; sc, S.C) was 8 µg/mL, the Tmax ([15]; sc, S.C) was 0.81 h and the half-life ([15]; sc, S.C) was 11.5 h. For the same compound, the dose excreted ([15]; po, P.O) was 19.6%, the dose excreted ([15]; sc, S.C) was 30.8% and the LD50 (LD50, oral, mice) was roughly 1000 mg/kg. It also gave an MIC [16] of 0.625 mg/L and an MIC [17] of 0.156 mg/L.
